Reference: patent US6545040B1, “Method of lowering the blood pressure” (Janssen Pharmaceutica N.V., priority 1988, dated 2003)

Tested on: spontaneous hypertensive rats
Assay: Blood pressure and heart rate in conscious spontaneous hypertensive rats after intraperitoneal injection
Type: in vivo
Conditions: alone
Procedure: Adult spontaneous hypertensive rats (6 months of age) were anesthetized by ether inhalation. The femoral artery was dissected and cannulated, and the catheter was connected to a strain-gauge blood pressure transducer. When the animals were fully awake, they were restrained and the systolic and diastolic arterial blood pressure were continuously recorded. An observation period of at least 30 min preceded the administration of the test compound. All test compounds were dissolved in 20% polypropylene glycol and injected intraperitoneally. After administration of the test drug the systolic and diastolic arterial blood pressure and the heart rate were recorded during a period of 120 minutes.

[1] = 1.25 mpk i.p., treated vs untreated animals

Cc1ccc(N(CC2=NCCN2)c2cccc(O)c2)cc1 [Phentolamine, phentolamine]
Δ% change in diastolic blood pressure (DBP), average 120 min (0.63 mpk i.p.): −13.1%
Δ% change in heart rate (HR), average 120 min (0.63 mpk i.p.): +5.1%
Δ% change in systolic blood pressure (SBP), average 120 min (0.63 mpk i.p.): −9.85%

O[C@@H](CNC[C@H](O)[C@H]1CCc2cc(F)ccc2O1)[C@@H]1CCc2cc(F)ccc2O1 [compound 1]
Δ% change in diastolic blood pressure (DBP), average 120 min [1]: +2.1%
Δ% change in heart rate (HR), average 120 min [1]: 0.5%
Δ% change in systolic blood pressure (SBP), average 120 min [1]: 0%
Δ% change in diastolic blood pressure (DBP), average 120 min (2.5 mpk i.p.): 0%
Δ% change in heart rate (HR), average 120 min (2.5 mpk i.p.): 0%
Δ% change in systolic blood pressure (SBP), average 120 min (2.5 mpk i.p.): −7%

NNc1nncc2ccccc12 [Hydralazine, hydralazine]
Δ% change in diastolic blood pressure (DBP), average 120 min (0.63 mpk i.p.): −9.9%
Δ% change in heart rate (HR), average 120 min (0.63 mpk i.p.): −1.45%
Δ% change in systolic blood pressure (SBP), average 120 min (0.63 mpk i.p.): −7.5%

CC(C)NCC(O)COc1ccc(CC(N)=O)cc1 (stereo not drawn) [Atenolol, atenolol]
Δ% change in diastolic blood pressure (DBP), average 120 min (10 mpk i.p.): +5.9%
Δ% change in heart rate (HR), average 120 min (10 mpk i.p.): −28.1%
Δ% change in systolic blood pressure (SBP), average 120 min (10 mpk i.p.): −3.7%

COCCc1ccc(OCC(O)CNC(C)C)cc1 (stereo not drawn) [Metoprolol, metoprolol]
Δ% change in diastolic blood pressure (DBP), average 120 min (10 mpk i.p.): +12.8%
Δ% change in heart rate (HR), average 120 min (10 mpk i.p.): −16.6%
Δ% change in systolic blood pressure (SBP), average 120 min (10 mpk i.p.): −1.2%

CC(C)NCC(O)COc1cccc2ccccc12 (stereo not drawn) [Propranolol, propranolol]
Δ% change in diastolic blood pressure (DBP), average 120 min (5 mpk i.p.): +12.4%
Δ% change in heart rate (HR), average 120 min (5 mpk i.p.): −20.7%
Δ% change in systolic blood pressure (SBP), average 120 min (5 mpk i.p.): −2%

COc1cc2nc(N3CCN(C(=O)c4ccco4)CC3)nc(N)c2cc1OC [Prazosin, prazosin]
Δ% change in diastolic blood pressure (DBP), average 120 min (0.01 mpk i.p.): −11.3%
Δ% change in heart rate (HR), average 120 min (0.01 mpk i.p.): +1.6%
Δ% change in systolic blood pressure (SBP), average 120 min (0.01 mpk i.p.): −10.9%
